Species: Rattus norvegicus
Assay: DrugMatrix - Regimen: Daily Repeat
Assay type: toxicity, organism-based, Sprague-Dawley
Parameters: regimen Daily Repeat, gender Male, age 6-8 weeks
Conditions: in vivo, po, route oral GAVAGE, […]; for ABSOLUTE BASOPHIL / ABSOLUTE EOSINOPHIL / BASOPHIL / NUCLEATED RED BLOOD CELLS / EOSINOPHIL / ABSOLUTE MONOCYTE / ABSOLUTE SEGMENTED NEUTROPHIL / ERYTHROCYTE COUNT / HEMATOCRIT / HEMOGLOBIN / LEUKOCYTE COUNT / LYMPHOCYTE / MEAN CORPUSCULAR HEMOGLOBIN / MEAN CORPUSCULAR HEMOGLOBIN CONCENTRATION / MEAN CORPUSCULAR VOLUME / MONOCYTE / NEUTROPHIL / PLATELET COUNT: tissue Blood; for CREATININE / POTASSIUM / TOTAL BILIRUBIN / ALANINE AMINOTRANSFERASE / ALBUMIN / ASPARTATE AMINOTRANSFERASE / BLOOD UREA NITROGEN / CARBON DIOXIDE / CHLORIDE / CHOLESTEROL / CREATINE PHOSPHOKINASE / GLUCOSE / LACTATE DEHYDROGENASE / PHOSPHORUS / SODIUM / TOTAL PROTEIN / URIC ACID / LIPASE: tissue Plasma
[1] = 0 mg/kg, 72 h, dose level Control, time 3 day
[2] = 0 mg/kg, 120 h, dose level Control, time 5 day
[3] = 100 mg/kg, 72 h, dose level Low, time 3 day
[4] = 100 mg/kg, 120 h, dose level Low, time 5 day
[5] = 750 mg/kg, 72 h, dose level High, time 3 day
[6] = 750 mg/kg, 120 h, dose level High, time 5 day

COc1cc([C@@H]2c3cc4c(cc3[C@@H](O[C@@H]3O[C@@H]5CO[C@@H](C)O[C@H]5[C@H](O)[C@H]3O)[C@H]3COC(=O)[C@H]23)OCO4)cc(OC)c1O [ETOPOSIDE]
ABSOLUTE BASOPHIL [1]: 0 CELLS/uL | ABSOLUTE EOSINOPHIL [1]: 52.33 CELLS/uL | BASOPHIL [1]: 0% | NUCLEATED RED BLOOD CELLS [1]: 0 /100WBC | CREATININE [1]: 0.33 mg/dL | POTASSIUM [1]: 5.37 MEQ/L | TOTAL BILIRUBIN [1]: 0.2 mg/dL | ABSOLUTE BASOPHIL [2]: 0 CELLS/uL | ABSOLUTE EOSINOPHIL [2]: 0 CELLS/uL | BASOPHIL [2]: 0% | EOSINOPHIL [2]: 0% | TOTAL BILIRUBIN [2]: 0.37 mg/dL | ABSOLUTE BASOPHIL [3]: 0 CELLS/uL | ABSOLUTE EOSINOPHIL [3]: 0 CELLS/uL | ABSOLUTE MONOCYTE [3]: 20.33 CELLS/uL | ABSOLUTE SEGMENTED NEUTROPHIL [3]: 390.33 CELLS/uL | BASOPHIL [3]: 0% | EOSINOPHIL [3]: 0% | ERYTHROCYTE COUNT [3]: 4.86 x10E6/uL | HEMATOCRIT [3]: 29.9% | HEMOGLOBIN [3]: 12.13 G/DL | LEUKOCYTE COUNT [3]: 5.67 x10E3/uL | LYMPHOCYTE [3]: 90% | MEAN CORPUSCULAR HEMOGLOBIN [3]: 24.93 pg | MEAN CORPUSCULAR HEMOGLOBIN CONCENTRATION [3]: 40.57 G/DL | MEAN CORPUSCULAR VOLUME [3]: 61.53 fL | MONOCYTE [3]: 0.33% | NEUTROPHIL [3]: 9.67% | NUCLEATED RED BLOOD CELLS [3]: 0 /100WBC | PLATELET COUNT [3]: 1214.33 x10E3/uL | ALANINE AMINOTRANSFERASE [3]: 36.67 u/L | ALBUMIN [3]: 3.7 G/DL | ASPARTATE AMINOTRANSFERASE [3]: 67.67 u/L | BLOOD UREA NITROGEN [3]: 7.67 mg/dL | CARBON DIOXIDE [3]: 27 mmol/L | CHLORIDE [3]: 102.67 MEQ/L | CHOLESTEROL [3]: 92 mg/dL | CREATINE PHOSPHOKINASE [3]: 255.67 u/L | CREATININE [3]: 0.23 mg/dL | GLUCOSE [3]: 185 mg/dL | LACTATE DEHYDROGENASE [3]: 162.33 u/L | PHOSPHORUS [3]: 11 mg/dL | POTASSIUM [3]: 4.69 MEQ/L | SODIUM [3]: 145 MEQ/L | TOTAL BILIRUBIN [3]: 0.1 mg/dL | TOTAL PROTEIN [3]: 5.5 G/DL | URIC ACID [3]: 0.8 mg/dL | ABSOLUTE BASOPHIL [4]: 0 CELLS/uL | ABSOLUTE EOSINOPHIL [4]: 0 CELLS/uL | ABSOLUTE MONOCYTE [4]: 12 CELLS/uL | ABSOLUTE SEGMENTED NEUTROPHIL [4]: 593.67 CELLS/uL | BASOPHIL [4]: 0% | EOSINOPHIL [4]: 0% | ERYTHROCYTE COUNT [4]: 4.82 x10E6/uL | HEMATOCRIT [4]: 30.6% | HEMOGLOBIN [4]: 12.2 G/DL | LEUKOCYTE COUNT [4]: 4.43 x10E3/uL | LYMPHOCYTE [4]: 86% | MEAN CORPUSCULAR HEMOGLOBIN [4]: 25.37 pg | MEAN CORPUSCULAR HEMOGLOBIN CONCENTRATION [4]: 39.9 G/DL | MEAN CORPUSCULAR VOLUME [4]: 63.67 fL | MONOCYTE [4]: 0.33% | NEUTROPHIL [4]: 13.67% | NUCLEATED RED BLOOD CELLS [4]: 0 /100WBC | PLATELET COUNT [4]: 1205.67 x10E3/uL | ALANINE AMINOTRANSFERASE [4]: 53.33 u/L | ALBUMIN [4]: 3.97 G/DL | ASPARTATE AMINOTRANSFERASE [4]: 81 u/L | BLOOD UREA NITROGEN [4]: 8.33 mg/dL | CHLORIDE [4]: 104.33 MEQ/L | CHOLESTEROL [4]: 87.67 mg/dL | CREATINE PHOSPHOKINASE [4]: 278.33 u/L | CREATININE [4]: 0.3 mg/dL | GLUCOSE [4]: 157 mg/dL | LACTATE DEHYDROGENASE [4]: 65.67 u/L | LIPASE [4]: 8.67 u/L | PHOSPHORUS [4]: 9.87 mg/dL | POTASSIUM [4]: 5.33 MEQ/L | SODIUM [4]: 145.8 MEQ/L | TOTAL BILIRUBIN [4]: 0.1 mg/dL | TOTAL PROTEIN [4]: 5.6 G/DL | URIC ACID [4]: 0.4 mg/dL | ABSOLUTE BASOPHIL [5]: 0 CELLS/uL | ABSOLUTE EOSINOPHIL [5]: 0 CELLS/uL | ABSOLUTE MONOCYTE [5]: 23 CELLS/uL | ABSOLUTE SEGMENTED NEUTROPHIL [5]: 326.67 CELLS/uL | BASOPHIL [5]: 0% | EOSINOPHIL [5]: 0% | ERYTHROCYTE COUNT [5]: 4.79 x10E6/uL | HEMATOCRIT [5]: 30.9% | HEMOGLOBIN [5]: 12.47 G/DL | LEUKOCYTE COUNT [5]: 4 x10E3/uL | LYMPHOCYTE [5]: 91.33% | MEAN CORPUSCULAR HEMOGLOBIN [5]: 26 pg | MEAN CORPUSCULAR HEMOGLOBIN CONCENTRATION [5]: 40.33 G/DL | MEAN CORPUSCULAR VOLUME [5]: 64.5 fL | MONOCYTE [5]: 0.67% | NEUTROPHIL [5]: 8% | NUCLEATED RED BLOOD CELLS [5]: 0 /100WBC | PLATELET COUNT [5]: 1133.33 x10E3/uL | ALANINE AMINOTRANSFERASE [5]: 36.33 u/L | ALBUMIN [5]: 3.77 G/DL | ASPARTATE AMINOTRANSFERASE [5]: 71 u/L | BLOOD UREA NITROGEN [5]: 9 mg/dL | CARBON DIOXIDE [5]: 26 mmol/L | CHOLESTEROL [5]: 79.67 mg/dL | CREATINE PHOSPHOKINASE [5]: 235.33 u/L | CREATININE [5]: 0.1 mg/dL | GLUCOSE [5]: 189 mg/dL | LACTATE DEHYDROGENASE [5]: 94.67 u/L | LIPASE [5]: 11.33 u/L | PHOSPHORUS [5]: 11.07 mg/dL | POTASSIUM [5]: 4.56 MEQ/L | SODIUM [5]: 142.5 MEQ/L | TOTAL BILIRUBIN [5]: 0.1 mg/dL | TOTAL PROTEIN [5]: 5.4 G/DL | URIC ACID [5]: 0.37 mg/dL | ABSOLUTE BASOPHIL [6]: 0 CELLS/uL | ABSOLUTE EOSINOPHIL [6]: 0 CELLS/uL | ABSOLUTE MONOCYTE [6]: 44.5 CELLS/uL | ABSOLUTE SEGMENTED NEUTROPHIL [6]: 165.5 CELLS/uL | BASOPHIL [6]: 0% | EOSINOPHIL [6]: 0% | ERYTHROCYTE COUNT [6]: 6.19 x10E6/uL | HEMATOCRIT [6]: 38.1% | HEMOGLOBIN [6]: 15.5 G/DL | LEUKOCYTE COUNT [6]: 2.85 x10E3/uL | LYMPHOCYTE [6]: 93% | MEAN CORPUSCULAR HEMOGLOBIN [6]: 25.05 pg | MEAN CORPUSCULAR HEMOGLOBIN CONCENTRATION [6]: 40.7 G/DL | MEAN CORPUSCULAR VOLUME [6]: 61.55 fL | MONOCYTE [6]: 1.5% | NEUTROPHIL [6]: 5.5% | NUCLEATED RED BLOOD CELLS [6]: 0 /100WBC | PLATELET COUNT [6]: 975 x10E3/uL | ALANINE AMINOTRANSFERASE [6]: 21.5 u/L | ALBUMIN [6]: 4.1 G/DL | ASPARTATE AMINOTRANSFERASE [6]: 87 u/L | BLOOD UREA NITROGEN [6]: 106.5 mg/dL | CARBON DIOXIDE [6]: 28 mmol/L | CHLORIDE [6]: 92 MEQ/L | CHOLESTEROL [6]: 83.5 mg/dL | CREATINE PHOSPHOKINASE [6]: 328.5 u/L | CREATININE [6]: 0.69 mg/dL | GLUCOSE [6]: 115 mg/dL | LACTATE DEHYDROGENASE [6]: 82 u/L | LIPASE [6]: 10 u/L | PHOSPHORUS [6]: 9.8 mg/dL | POTASSIUM [6]: 6.46 MEQ/L | SODIUM [6]: 133.6 MEQ/L | TOTAL BILIRUBIN [6]: 0.15 mg/dL | TOTAL PROTEIN [6]: 6.3 G/DL | URIC ACID [6]: 0.35 mg/dL

— ChEMBL document CHEMBL3885881, “DrugMatrix”
